Assay results: paper PMC11651168, “Effective, but Safe? Physiologically Based Pharmacokinetic (PBPK)-Modeling-Based Dosing Study of Molnupiravir for Risk Assessment in Pediatric Subpopulations” (ACS Pharmacology & Translational Science, 2024)
Where two headings read alike, the source gives them in different places. Marks after values point to notes of the source that are not given here.

What was measured:
[1] = cited from earlier work
[2] = tested on: rats; design: method as in earlier work; conditions: over three months; cited from earlier work
[3] = Plasma protein binding assay; format: in vitro ADME; conditions: 2 h incubation; for fraction unbound at 2 h: plasma
Method: (§1) First, for the construction of the adult molnupiravir-NHC PBPK model, the physicochemical properties were incorporated. Moreover, ADME in vitro assays were performed to allow a better estimation of in vivo PK behavior. In particular, the plasma stability and the metabolic stability assays were used to derive information on the half-life of molnupiravir and the subsequent generation of NHC. […] This information was taken into account during parameter optimization. […] The determination of the log P value yielded information for calculation of the partition coefficients. […] This value was used as a basis for the subsequent parameter optimization. As NHC is further converted to NHC-TP, which is cleared via the endogenous nucleoside pool, renal clearance as well as hepatic clearance, indicated by our in vitro data, is not involved in clearance.
(§2) The plasma protein binding assay, the plasma stability assay, and the metabolic stability assay were performed as described previously.[30] For all of the assays, NHC and molnupiravir were used. Molnupiravir and NHC were purchased from Merck/Sigma.

[4] = tested on: rats; test: Preclinical bone and cartilage toxicity in rats; conditions: allometric scaling of 500 mg/kg/day in rats, scaling factors of ref 38
[5] = PAMPA permeability assay; format: in vitro ADME
Method: For the PAMPA assay, a PAMP-096 kit from BioAssay Systems was used. Theophyllin, chloramphenicol, and diclofenac were used as low, high, and medium permeability controls, respectively. The assay was conducted as described in the manufacturer’s protocol. For all compounds, 10 mg/mL DMSO stocks were used. Compound concentrations were determined using HPLC-MS/MS. For the HPLC-MS measurements, samples were analyzed using an Agilent 1290 Infinity II HPLC system coupled to an AB Sciex QTrap 6500plus as described below. Permeability was determined as follows in eqs 2 and 3.
Effective permeability (Peff) was calculated using the following formula [drawing 2] 2 [drawing 3] 3 where the PAt is average peak area of the test compound or permeability standard and PAE is the peak area of the equilibrium standard. The value of C was calculated by the following formula, where donor volume (VD) is 0.2 cm^3, acceptor volume (VA) is 0.3 cm^3, membrane area is 0.24 cm^2, and incubation time is 72,360 s.
(§3) Samples were analyzed using an Agilent 1290 Infinity II HPLC system coupled to an AB Sciex QTrap 6500plus mass spectrometer. LC conditions were as follows: column: Agilent Zorbax Eclipse Plus C18, 50 × 2.1 mm, 1.8 μm; temperature: 30 °C; injection volume: 1 μL per sample; flow rate: 700 μL/min. Samples were collected under the following conditions. Solvents: A: 100% water +0.1% HCOOH; solvent B: 100% ACN +0.1% HCOOH. The gradient was as follows: 99% A at 0 min, 99% A until 1 min, 99–0% A from 1 to 3 min, 99% A until 3.2 min. Mass transitions are depicted in Table S1. Peaks of samples were quantified by using relative quantification. Data analysis was performed by using Multiquant 3.0 software (AB Sciex).

[6] = tested on: dogs; test: Preclinical toxicity study in dogs; conditions: allometric scaling of 50 mg/kg/day in dogs, scaling factors of ref 38
[7] = cited from earlier work; remark: listed apart in the source
[8] = cited from earlier work; remark: listed apart in the source
[9] = tested on: dogs; conditions: 14 days; cited from earlier work
[10] = Plasma stability assay; format: in vitro ADME; conditions: for half-life: plasma
Method: as §1, §2

[11] = Microsomal metabolic stability assay; format: in vitro ADME; conditions: microsomes; for microsomal CLint: microsomal metabolic stability (Clint; in vitro)
Method: as §1, §2

[12] = Pediatric PBPK model for neonates, infants and children in early childhood (PK-Sim); design: species or system human
[13] = Experimental determination of log P (octan-1-ol/water); format: physicochemical; conditions: data from in vitro studies
Method: The log P experiment was performed for molnupiravir and its metabolite NHC. Octan-1-ol and water were saturated 24 h prior to the start of the experiment. Each compound was added to the octan-1-ol phase at a final concentration of 100 ng/mL. Two setups were used: octan-1-ol/water (1:1) and octan-1-ol/water (1:10). After addition of the compound, each phase was shaken at 2000 rpm for 1 h, and then, phases were separated by centrifugation at 13,000 rpm for 5 min at 4 °C. From each sample, 10 μL of water layer and octanol layer was diluted to 100 μL with DMSO for high-performance liquid chromatography tandem mass spectrometry (HPLC-MS/MS) analysis. The log P was calculated by Formula 1. [drawing 1] 1
as §3, with “Data analysis was performed by using Multiquant 3.0 software (AB Sciex).” left out

[14] = tested on: SARS-CoV-2 omicron BA.2 lineage; design: method as in Wen et al., 2023 (36); conditions: ref Wen et al., 2023 (36), read-out: Antiviral activity, EC50; cited from earlier work
[15] = tested on: SARS-CoV-2 alpha; design: method as in Wen et al., 2023 (36); conditions: ref Wen et al., 2023 (36), read-out: Antiviral activity, EC50; cited from earlier work
[16] = tested on: SARS-CoV-2 wildtype; design: method as in Wen et al., 2023 (36); conditions: ref Wen et al., 2023 (36), read-out: Antiviral activity, EC50; cited from earlier work
[17] = tested on: SARS-CoV-2 beta; design: method as in Wen et al., 2023 (36); conditions: ref Wen et al., 2023 (36), read-out: Antiviral activity, EC50; cited from earlier work
[18] = tested on: SARS-CoV-2 omicron BA.1 lineage; design: method as in Wen et al., 2023 (36); conditions: ref Wen et al., 2023 (36), read-out: Antiviral activity, EC50; cited from earlier work
[19] = tested on: SARS-CoV-2 delta; design: method as in Wen et al., 2023 (36); conditions: ref Wen et al., 2023 (36), read-out: Antiviral activity, EC50; cited from earlier work

CC(C)C(=O)OC[C@H]1O[C@@H](n2ccc(NO)nc2=O)[C@H](O)[C@@H]1O [Molnupiravir]
pKa ([1]; first of three values): 2.2
pKa ([1]; second of three printed values): 10.2
pKa ([1]; third of three printed values): 12.0
dose at which bone and cartilage toxicity was observed [2]: exceeding 500 mg/kg/day
plasma protein binding (%) [3]: 38.08 ^b %
fraction unbound at 2 h [3]: ~0.62
human equivalent dose of the toxicity-associated rat dose [4]: around 80 mg/kg/day
permeability (in words) [5]: moderate permeability
permeability (PAMPA) ([5]; 72360 s): 3.1 10^–6 cm/s
Papp at 72360 s ([5]; data from in vitro studies, read-out: specific intestinal permeability (converted)): 3.1 ×10⁻⁶ cm/s
human equivalent dose of the nonobserved toxicity dose in dogs [6]: 27 mg/kg/day
solubility [7]: 41[21] mg/mL
decrease in Cmax with food (ratio) ([8]; concomitant food consumption): 1.6
effect of food on total exposure (AUC0–∞) ([8]; concomitant food consumption): not impacted
Tmax ([8]; with concomitant food consumption): 3.0 h
Tmax ([8]; without food): 1.0 h
dose at which no toxicity was observed [9]: 50 mg/kg/day
plasma stability (in words) [10]: degraded rapidly in plasma
half-life [10]: < 15 min
microsomal metabolic stability (Clint; in vitro) [11]: 40.6 ^b μL/min/mg protein
microsomal CLint [11]: ~40 µL/min/mg
fold higher doses needed in pediatric subpopulations for similar efficacy to adults [12]: 2–3 fold

O=c1nc(NO)ccn1[C@@H]1O[C@H](CO)[C@@H](O)[C@H]1O [NHC, β-D-N4-hydroxycytidine]
logP [13]: 0.1
pKa ([1]; model input, source not given): 12.30
EC50 [14]: 670 nM
plasma protein binding (%) [3]: 38.84 ^b %
fraction unbound at 2 h [3]: ~0.64
EC50 [15]: 530 nM
solubility [7]: 21[21] mg/mL
EC50 [16]: 300 nM
EC50 [17]: 480 nM
plasma stability (in words) [10]: stable in plasma
half-life [10]: > 240 min
microsomal CLint [11]: ~11.6 µL/min/mg
EC50 [18]: 280 nM
EC50 [19]: 890 nM
